Data: publication PMC8268022, “Loureirin B Exerts its Immunosuppressive Effects by Inhibiting STIM1/Orai1 and KV1.3 Channels” (Frontiers in Pharmacology, 2021)

Molecular target: T1, Orai1 (STIM1/Orai1 channel, CRAC channel) (Homo sapiens, UniProt Q96D31)
T1 construct: with STIM1
Assay: whole-cell patch clamp of STIM1/Orai1 currents in transfected HEK293T cells
Format: cell-based

T1 sequence (Q96D31 whole entry): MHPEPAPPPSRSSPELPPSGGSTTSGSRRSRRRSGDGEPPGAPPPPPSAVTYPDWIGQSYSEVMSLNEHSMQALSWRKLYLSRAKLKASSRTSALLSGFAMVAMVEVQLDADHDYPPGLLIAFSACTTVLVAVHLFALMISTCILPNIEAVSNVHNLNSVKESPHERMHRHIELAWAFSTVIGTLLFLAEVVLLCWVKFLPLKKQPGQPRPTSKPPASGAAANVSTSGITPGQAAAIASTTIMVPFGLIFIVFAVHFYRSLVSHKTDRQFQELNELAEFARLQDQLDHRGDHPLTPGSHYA
T1 sequence (Q13586 23-685 partner): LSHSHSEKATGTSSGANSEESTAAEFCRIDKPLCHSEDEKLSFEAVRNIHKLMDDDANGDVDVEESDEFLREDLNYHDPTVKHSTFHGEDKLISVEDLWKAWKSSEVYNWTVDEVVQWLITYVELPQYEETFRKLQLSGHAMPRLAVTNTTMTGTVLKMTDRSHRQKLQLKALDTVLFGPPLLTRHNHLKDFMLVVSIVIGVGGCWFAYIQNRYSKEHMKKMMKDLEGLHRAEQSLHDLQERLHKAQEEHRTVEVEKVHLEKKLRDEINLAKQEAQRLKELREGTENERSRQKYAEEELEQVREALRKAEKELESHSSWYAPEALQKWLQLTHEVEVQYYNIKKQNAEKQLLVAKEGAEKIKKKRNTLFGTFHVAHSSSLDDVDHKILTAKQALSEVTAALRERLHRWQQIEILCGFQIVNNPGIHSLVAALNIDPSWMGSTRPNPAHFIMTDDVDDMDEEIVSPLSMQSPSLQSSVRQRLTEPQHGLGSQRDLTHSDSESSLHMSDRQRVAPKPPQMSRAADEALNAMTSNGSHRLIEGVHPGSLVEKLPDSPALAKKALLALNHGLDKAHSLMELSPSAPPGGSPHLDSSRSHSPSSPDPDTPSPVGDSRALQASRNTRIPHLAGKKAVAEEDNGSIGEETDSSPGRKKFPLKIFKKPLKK

- IC50: 17.1 ± 2.17 µM
SMILES: COc1cc(OC)c(CCC(=O)c2ccc(O)cc2)c(OC)c1 [LrB, Loureirin B]
